Experimental data from ChEMBL document CHEMBL3885881, “DrugMatrix”.

Species: Rattus norvegicus
Test: DrugMatrix - Regimen: Daily Repeat
Format: toxicity, organism-based, Sprague-Dawley
Design: regimen Daily Repeat, gender Male, age 6-8 weeks
Conditions: in vivo, po, route oral GAVAGE, vehicle 100 % SALINE; for ABSOLUTE BASOPHIL / ABSOLUTE EOSINOPHIL / ABSOLUTE LYMPHOCYTE / ABSOLUTE MONOCYTE / ABSOLUTE SEGMENTED NEUTROPHIL / BASOPHIL / EOSINOPHIL / ERYTHROCYTE COUNT / HEMATOCRIT / HEMOGLOBIN / LEUKOCYTE COUNT / LYMPHOCYTE / MEAN CORPUSCULAR HEMOGLOBIN / MEAN CORPUSCULAR HEMOGLOBIN CONCENTRATION / MONOCYTE / NEUTROPHIL / NUCLEATED RED BLOOD CELLS / PLATELET COUNT: tissue Blood; for ALANINE AMINOTRANSFERASE / ALBUMIN / ALKALINE PHOSPHATASE / ASPARTATE AMINOTRANSFERASE / BLOOD UREA NITROGEN / CARBON DIOXIDE / CHOLESTEROL / CREATINE PHOSPHOKINASE / CREATININE / GLUCOSE / LACTATE DEHYDROGENASE / LIPASE / POTASSIUM / SODIUM / TOTAL BILIRUBIN / TOTAL PROTEIN / URIC ACID: tissue Plasma
[1] = 0 mg/kg, 72 h, dose level Control, time 3 day
[2] = 0 mg/kg, 120 h, dose level Control, time 5 day
[3] = 330 mg/kg, 72 h, dose level Low, time 3 day

SMILES: Nc1nc2c(ncn2COCCO)c(=O)[nH]1 [ACYCLOVIR]
- ABSOLUTE BASOPHIL [1]: 0 CELLS/uL
- ABSOLUTE EOSINOPHIL [1]: 37 CELLS/uL
- ABSOLUTE LYMPHOCYTE [1]: 12359.33 CELLS/uL
- ABSOLUTE MONOCYTE [1]: 122.67 CELLS/uL
- ABSOLUTE SEGMENTED NEUTROPHIL [1]: 847.67 CELLS/uL
- BASOPHIL [1]: 0%
- EOSINOPHIL [1]: 0.33%
- ERYTHROCYTE COUNT [1]: 5.75 x10E6/uL
- HEMATOCRIT [1]: 36.08%
- HEMOGLOBIN [1]: 14.07 G/DL
- LEUKOCYTE COUNT [1]: 13.37 x10E3/uL
- LYMPHOCYTE [1]: 92.5%
- MEAN CORPUSCULAR HEMOGLOBIN [1]: 24.47 pg
- MEAN CORPUSCULAR HEMOGLOBIN CONCENTRATION [1]: 38.98 G/DL
- MONOCYTE [1]: 1%
- NEUTROPHIL [1]: 6.17%
- NUCLEATED RED BLOOD CELLS [1]: 0.17 /100WBC
- PLATELET COUNT [1]: 1202.17 x10E3/uL
- ALANINE AMINOTRANSFERASE [1]: 50.67 u/L
- ALBUMIN [1]: 4.13 G/DL
- ALKALINE PHOSPHATASE [1]: 356.33 u/L
- ASPARTATE AMINOTRANSFERASE [1]: 78.17 u/L
- BLOOD UREA NITROGEN [1]: 14.17 mg/dL
- CARBON DIOXIDE [1]: 31.33 mmol/L
- CHOLESTEROL [1]: 76.5 mg/dL
- CREATINE PHOSPHOKINASE [1]: 248.33 u/L
- CREATININE [1]: 0.2 mg/dL
- GLUCOSE [1]: 144 mg/dL
- LACTATE DEHYDROGENASE [1]: 107 u/L
- LIPASE [1]: 9.83 u/L
- POTASSIUM [1]: 6.75 MEQ/L
- SODIUM [1]: 142 MEQ/L
- TOTAL BILIRUBIN [1]: 0.18 mg/dL
- TOTAL PROTEIN [1]: 5.98 G/DL
- URIC ACID [1]: 1.42 mg/dL
- ABSOLUTE BASOPHIL [2]: 0 CELLS/uL
- ABSOLUTE EOSINOPHIL [2]: 0 CELLS/uL
- ABSOLUTE LYMPHOCYTE [2]: 8681.17 CELLS/uL
- ABSOLUTE MONOCYTE [2]: 79.83 CELLS/uL
- ABSOLUTE SEGMENTED NEUTROPHIL [2]: 689 CELLS/uL
- BASOPHIL [2]: 0%
- EOSINOPHIL [2]: 0%
- ERYTHROCYTE COUNT [2]: 5.49 x10E6/uL
- HEMATOCRIT [2]: 33.55%
- HEMOGLOBIN [2]: 13.1 G/DL
- LEUKOCYTE COUNT [2]: 9.45 x10E3/uL
- LYMPHOCYTE [2]: 92.33%
- MEAN CORPUSCULAR HEMOGLOBIN [2]: 23.92 pg
- MEAN CORPUSCULAR HEMOGLOBIN CONCENTRATION [2]: 39.07 G/DL
- MONOCYTE [2]: 0.67%
- NEUTROPHIL [2]: 7%
- NUCLEATED RED BLOOD CELLS [2]: 0.17 /100WBC
- PLATELET COUNT [2]: 1001.17 x10E3/uL
- ALANINE AMINOTRANSFERASE [2]: 49.33 u/L
- ALBUMIN [2]: 4.07 G/DL
- ALKALINE PHOSPHATASE [2]: 300.33 u/L
- ASPARTATE AMINOTRANSFERASE [2]: 83.5 u/L
- BLOOD UREA NITROGEN [2]: 16 mg/dL
- CARBON DIOXIDE [2]: 29.67 mmol/L
- CHOLESTEROL [2]: 74.33 mg/dL
- CREATINE PHOSPHOKINASE [2]: 489.67 u/L
- CREATININE [2]: 0.35 mg/dL
- GLUCOSE [2]: 151 mg/dL
- LACTATE DEHYDROGENASE [2]: 133.67 u/L
- LIPASE [2]: 11.17 u/L
- POTASSIUM [2]: 5.5 MEQ/L
- SODIUM [2]: 145.7 MEQ/L
- TOTAL BILIRUBIN [2]: 0.2 mg/dL
- TOTAL PROTEIN [2]: 6.05 G/DL
- URIC ACID [2]: 0.68 mg/dL
- ABSOLUTE BASOPHIL [3]: 0 CELLS/uL
- ABSOLUTE EOSINOPHIL [3]: 0 CELLS/uL
- ABSOLUTE LYMPHOCYTE [3]: 14421.67 CELLS/uL
- ABSOLUTE MONOCYTE [3]: 118.67 CELLS/uL
- ABSOLUTE SEGMENTED NEUTROPHIL [3]: 559.67 CELLS/uL
- BASOPHIL [3]: 0%
- EOSINOPHIL [3]: 0%
- ERYTHROCYTE COUNT [3]: 5.8 x10E6/uL
- HEMATOCRIT [3]: 35.43%
- HEMOGLOBIN [3]: 13.97 G/DL
- LEUKOCYTE COUNT [3]: 15.1 x10E3/uL
- LYMPHOCYTE [3]: 95%
- MEAN CORPUSCULAR HEMOGLOBIN [3]: 24.1 pg
- MEAN CORPUSCULAR HEMOGLOBIN CONCENTRATION [3]: 39.4 G/DL
- MONOCYTE [3]: 0.67%
- NEUTROPHIL [3]: 4.33%
- NUCLEATED RED BLOOD CELLS [3]: 0 /100WBC
- PLATELET COUNT [3]: 1133.33 x10E3/uL
- ALANINE AMINOTRANSFERASE [3]: 50 u/L
- ALBUMIN [3]: 4.3 G/DL
- ALKALINE PHOSPHATASE [3]: 334 u/L
- ASPARTATE AMINOTRANSFERASE [3]: 88.67 u/L
- BLOOD UREA NITROGEN [3]: 17.33 mg/dL
- CARBON DIOXIDE [3]: 25.67 mmol/L
- CHOLESTEROL [3]: 70 mg/dL
- CREATINE PHOSPHOKINASE [3]: 328.33 u/L
- CREATININE [3]: 0.34 mg/dL
- GLUCOSE [3]: 183 mg/dL
- LACTATE DEHYDROGENASE [3]: 177.67 u/L
- LIPASE [3]: 10.33 u/L
- POTASSIUM [3]: 5.7 MEQ/L
- SODIUM [3]: 144.1 MEQ/L
- TOTAL BILIRUBIN [3]: 0.13 mg/dL
- TOTAL PROTEIN [3]: 6.17 G/DL
- URIC ACID [3]: 2.2 mg/dL
